Measured values reported in US8536229B2, “Acetylene derivatives having MGluR 5 antagonistic activity” (Novartis AG, priority 2001, dated 2013).

Legend:
[1] = system: stress-induced hyperthermia in mice; experiment: stress-induced hyperthermia in mice; format: in vivo; conditions: reduced from 0.92±0.09° C., p<0.001
Method: A. Lecci at al., Psychopharmacol. 101, 255-261]. At doses of about 0.1 to about 30 mg/kg p.o., the agents of the invention reverse the stress-induced hyperthermia.

melting point	SMILES	further results
152 to 155 °C	CC(=O)N[C@@H]1CCC[C@@](O)(C#Cc2cccc(C)c2)C1 (racemic) [Example 6m, (±)-(1RS,3SR)-N-(3-hydroxy-3-m-tolylethynyl-cyclohexyl)-acetamide]	
	COC(=O)N1CC[C@@H]2[C@H]1CCC[C@@]2(O)C#Cc1cccc(C)c1 [Example 1, (−)-(3aR,4S,7aR)-4-Hydroxy-4-m-tolylethynyl-octahydro-indole-1-carboxylic acid methyl ester]	stress-induced hyperthermia ([1]; 0.1 mg/kg p.o.): 0.56±0.06 °C; stress-induced hyperthermia ([1]; 1 mg/kg p.o.): 0.42±0.06 °C; stress-induced hyperthermia ([1]; 10 mg/kg p.o.): 0.18±0.05 °C
115 to 116 °C	CCOC(=O)N1CC[C@@H]2[C@H]1CCC[C@@]2(O)C#Cc1ccc(F)cc1 (racemic) [Example 1i, (±)-(3aRS,4SR,7aRS)-4-(4-Fluoro-phenylethynyl)-4-hydroxy-octahydro-indole-1-carboxylic acid ethyl ester]	
195.5 to 196.5 °C	Cc1cccc(C#C[C@]2(O)CCC[C@@H]3[C@H]2CCN3C(=O)c2ccco2)c1 [Example 1b, (−)-(3aR,4S,7aR)-Furan-2-yl-(4-hydroxy-4-m-tolylethynyl-octahydro-indol-1-yl)-methanone]	
106 to 107 °C	CCOC(=O)N[C@@H]1CCC[C@@](O)(C#Cc2cccc(C)c2)C1 (racemic) [Example 6o, (±)-(1RS,3SR)-(3-Hydroxy-3-m-tolylethynyl-cyclohexyl)-carbamic acid ethyl ester]	
121 to 123 °C	CCOC(=O)N[C@@H]1CCC[C@@](O)(C#Cc2cccc(F)c2)C1 (racemic) [Example 6u, (±)-(1RS,3SR)-[3-(3-Fluoro-phenylethynyl)-3-hydroxy-cyclohexyl]-carbamic acid ethyl ester]	
118 to 121 °C	CCOC(=O)N1CC[C@@H]2[C@H]1CCC[C@@]2(O)C#Cc1cccc(C)c1 [Example 1a, (−)-(3aR,4S,7aR)-4-Hydroxy-4-m-tolylethynyl-octahydro-indole-1-carboxylic acid ethyl ester]	
